# From patent US9040573B2, “Anti-fungal agent” (Nihon Nohyaku Co., Ltd., priority 2011, dated 2015)
# Where two headings read alike, the source gives them in different places.
# Columns and labels:
# Scytalidium dimidiatum = experiment: Antifungal Activity Test 1: MIC by broth microdilution method (Alamar Blue); assay type: cell-based; conditions: for MIC: growth inhibited by 80% or more; for MIC90: concentration to be MIC in 9 strains out of the 10 strains (90%)
# From the text: Scytalidium dimidiatum strain of clinical isolate obtained by separation and identification from nail or stratum corneum of patients with superficial mycosis was used. The fungi pre-cultured on an SDA medium was suspended in 0.1% (w/v) Tween 80-containing sterile saline and the suspension was filtered through gauze to collect arthrospore. This was suspended in 0.1% (w/v) Tween 80-containing sterile saline, and added to a 20% Alamar Blue-containing medium to 2×10^4 cells/mL to give a fungal inoculum solution.
# (§1) Each drug was used after dissolving in DMSO (dimethyl sulfoxide).
# (§2) The minimum inhibitory concentration (MIC) was measured by a broth microdilution method. That is, RPMI1640 medium (Sigma-Aldrich) was buffered with 0.165 M morpholine propanesulfonic acid (MOPS, Wako Pure Chemical Industries, Ltd.) to pH 7.0, and a given amount of a solution of the drug in DMSO was added thereto to prepare 2-fold dilution series within the range of 0.00098-4 μg/mL. This was added to a 96-well microplate by 100 μL, a fungal inoculum solution (100 μL, final concentration of fungi to be added: 1.0×10^4 cells/mL) was added, and the mixture was cultured at 35° C. An Alamar Blue reagent was added in advance to the culture medium (final addition concentration: 10%) and, at the time point when the Alamar Blue reagent in the drug-free growth control group changed from blue to red, the culture was discontinued and the absorbance (differential optical density at 570 nm based on 590 nm served as reference) measured. The minimum concentration of the drug that inhibited the growth of the fungus in the growth control group by 80% or more was taken as MIC. The concentration to be MIC (MIC90) in 9 strains out of the 10 strains (90%) measured was determined.
# Reference documents for measurement method: Takako Shinoda et al.: opinion proposed by Committee for Clinical Laboratory Standards of The Japanese Society for Medical Mycology (1995-1997), Method for antifungal susceptibility testing of filamentous fungus, Medical Mycology Journal, 40: 239-257, 1999. Clinical Laboratory Standards Institute/National Committee for Clinical Laboratory Standards. Reference method for broth dilution antifungal susceptibility testing of filamentous fungus. Approved Standard M38-A2. Wayne, Pa.: National Committee for Clinical Laboratory Standards, 2008. Test Results
# Scytalidium hyalinum = experiment: Antifungal Activity Test 2: MIC by broth microdilution method (Alamar Blue); assay type: cell-based
# Procedure: as §2
# Scytalidium hyalinum strain of clinical isolate available from CBS (Netherlands) was used. The fungus was pre-cultured in an SDA medium, 0.1% (w/v) Tween 80-containing sterile saline was added to give a suspension, which was filtered through gauze to collect arthrospore. This was suspended in 0.1% (w/v) Tween 80-containing sterile saline, and added to a 20% Alamar Blue-containing medium to 2×10^4 cells/mL to give a fungal inoculum solution.
# as §1
# The test method was the same as in the aforementioned antifungal activity test 1, and the minimum concentration of the drug that inhibited the growth of the fungus in the growth control group by 80% or more was taken as MIC. The MIC range of the 4 strains measured and the geometric mean (GM) of each drug were determined.
# [1] = Neoscytalidium dimidiatum, clinical isolate 530129, read-out: MIC
# [2] = Neoscytalidium dimidiatum, clinical isolate 530142, read-out: MIC
# [3] = Neoscytalidium dimidiatum, clinical isolate 530251, read-out: MIC
# [4] = Neoscytalidium dimidiatum, clinical isolate 530621, read-out: MIC
# [5] = Neoscytalidium dimidiatum, clinical isolate 530633, read-out: MIC
# [6] = Neoscytalidium dimidiatum, clinical isolate 530914, read-out: MIC
# [7] = Neoscytalidium dimidiatum, clinical isolate 530946, read-out: MIC
# [8] = Neoscytalidium dimidiatum, clinical isolate 530999, read-out: MIC
# [9] = Neoscytalidium dimidiatum, clinical isolate 531581, read-out: MIC
# [10] = Neoscytalidium dimidiatum, clinical isolate 531869, read-out: MIC
# [11] = Neoscytalidium dimidiatum, read-out: MIC90
# [12] = Neoscytalidium hyalinum, clinical isolate CBS200.88, growth inhibited by 80% or more, read-out: MIC
# [13] = Neoscytalidium hyalinum, clinical isolate CBS545.95, growth inhibited by 80% or more, read-out: MIC
# [14] = Neoscytalidium hyalinum, clinical isolate CBS601.85, growth inhibited by 80% or more, read-out: MIC
# [15] = Neoscytalidium hyalinum, clinical isolate CBS619.84, growth inhibited by 80% or more, read-out: MIC
# [16] = Neoscytalidium hyalinum, geometric mean of the 4 strains measured, read-out: GM (geometric mean of MIC)
# [17] = Neoscytalidium hyalinum, range of the 4 strains measured, read-out: MIC range
SMILES,MIC (Scytalidium dimidiatum; [1]) [µg/mL],MIC (Scytalidium dimidiatum; [2]) [µg/mL],MIC (Scytalidium dimidiatum; [3]) [µg/mL],MIC (Scytalidium dimidiatum; [4]) [µg/mL],MIC (Scytalidium dimidiatum; [5]) [µg/mL],MIC (Scytalidium dimidiatum; [6]) [µg/mL],MIC (Scytalidium dimidiatum; [7]) [µg/mL],MIC (Scytalidium dimidiatum; [8]) [µg/mL],MIC (Scytalidium dimidiatum; [9]) [µg/mL],MIC (Scytalidium dimidiatum; [10]) [µg/mL],MIC90 (Scytalidium dimidiatum; [11]) [µg/mL],MIC (Scytalidium hyalinum; [12]) [µg/mL],MIC (Scytalidium hyalinum; [13]) [µg/mL],MIC (Scytalidium hyalinum; [14]) [µg/mL],MIC (Scytalidium hyalinum; [15]) [µg/mL],MIC (Scytalidium hyalinum; [16]) [µg/mL],MIC (Scytalidium hyalinum; [17]) [µg/mL],further results
"CCC(C)(C)c1ccc(CC(C)CN2C[C@@H](C)O[C@@H](C)C2)cc1 (stereo partly drawn) [AMO, amorolfine]",0.5,1,2,1,0.5,2,1,1,0.5,0.5,2,2,2,2,2,2,2,–
"C[C@@H]1[C@H](O)[C@@H](C)/C=C/C=C/C=C/C=C/C=C/C=C/C=C/[C@H](O[C@@H]2O[C@H](C)[C@@H](O)[C@H](N)[C@@H]2O)C[C@@H]2O[C@](O)(C[C@@H](O)C[C@@H](O)[C@H](O)CC[C@@H](O)C[C@@H](O)CC(=O)O[C@H]1C)C[C@H](O)[C@H]2C(=O)O [AMPB, amphotericin B]",–,–,–,–,–,–,–,–,–,–,–,–,–,–,–,–,–,"MIC (Scytalidium dimidiatum; clinical isolate 530129): 0.25 µg/mL; MIC (Scytalidium dimidiatum; clinical isolate 530142): 0.13 µg/mL; MIC (Scytalidium dimidiatum; clinical isolate 530251): 0.25 µg/mL; MIC (Scytalidium dimidiatum; clinical isolate 530621): 0.25 µg/mL; MIC (Scytalidium dimidiatum; clinical isolate 530633): 0.25 µg/mL; MIC (Scytalidium dimidiatum; clinical isolate 530914): 0.13 µg/mL; MIC (Scytalidium dimidiatum; clinical isolate 530946): 0.25 µg/mL; MIC (Scytalidium dimidiatum; clinical isolate 530999): 0.5 µg/mL; MIC (Scytalidium dimidiatum; clinical isolate 531581): 0.25 µg/mL; MIC (Scytalidium dimidiatum; clinical isolate 531869): 0.25 µg/mL; MIC90 (Scytalidium dimidiatum): 0.25 µg/mL; MIC (Scytalidium hyalinum; clinical isolate CBS200.88, growth inhibited by 80% or more): 0.5 µg/mL; MIC (Scytalidium hyalinum; clinical isolate CBS545.95, growth inhibited by 80% or more): 1 µg/mL; MIC (Scytalidium hyalinum; clinical isolate CBS601.85, growth inhibited by 80% or more): 0.5 µg/mL; MIC (Scytalidium hyalinum; clinical isolate CBS619.84, growth inhibited by 80% or more): 0.5 µg/mL; GM (geometric mean of MIC) (Scytalidium hyalinum; geometric mean of the 4 strains measured): 0.59 µg/mL; MIC range (Scytalidium hyalinum; range of the 4 strains measured): 0.5 to 1 µg/mL"
"OC(Cn1cncn1)(Cn1cncn1)c1ccc(F)cc1F [FCZ, fluconazole]",> 4,> 4,> 4,> 4,> 4,> 4,> 4,> 4,> 4,> 4,> 4,> 4,> 4,2,> 4,> 4,–,–

# Now from value to molecule, other results behind:
MIC (Scytalidium dimidiatum; [1]) [µg/mL],MIC (Scytalidium dimidiatum; [2]) [µg/mL],MIC (Scytalidium dimidiatum; [3]) [µg/mL],MIC (Scytalidium dimidiatum; [4]) [µg/mL],MIC (Scytalidium dimidiatum; [5]) [µg/mL],MIC (Scytalidium dimidiatum; [6]) [µg/mL],MIC (Scytalidium dimidiatum; [7]) [µg/mL],MIC (Scytalidium dimidiatum; [8]) [µg/mL],MIC (Scytalidium dimidiatum; [9]) [µg/mL],MIC (Scytalidium dimidiatum; [10]) [µg/mL],MIC90 (Scytalidium dimidiatum; [11]) [µg/mL],MIC (Scytalidium hyalinum; [12]) [µg/mL],MIC (Scytalidium hyalinum; [13]) [µg/mL],MIC (Scytalidium hyalinum; [14]) [µg/mL],MIC (Scytalidium hyalinum; [15]) [µg/mL],MIC (Scytalidium hyalinum; [16]) [µg/mL],MIC (Scytalidium hyalinum; [17]) [µg/mL],SMILES,further results
0.25,0.13,0.25,0.25,0.13,0.13,0.25,0.13,0.25,0.13,0.25,0.063,0.063,0.031,0.13,0.063,0.031 to 0.13,"c1ccc(-c2ccc(C(c3ccccc3)n3ccnc3)cc2)cc1 (stereo not drawn) [BFZ, bifonazole]",–
0.5,0.5,0.25,0.5,0.5,0.5,0.5,0.25,0.25,0.25,0.5,0.13,0.13,0.13,0.25,0.15,0.13 to 0.25,"Clc1ccccc1C(c1ccccc1)(c1ccccc1)n1ccnc1 [CTZ, clotrimazole]",–
